Experiments:
honeybees = experiment: Honeybee repulsion experiment at feeding stations; assay type: in vivo; settings: 2% by weight with 50% sucrose solution in feeder
Experimental: FIG. 5 describes the feeding station arrangement (A and B) for the honeybee repulsion experiments described herein. As set forth in […], panel (A) sets forth the bee cage positions on the left portion of panel (A) with the randomized feeding station positions on the right portion of panel (A). Panel (B) sets forth an alignment of the randomized feeding station positions with a distance of two meters between feeding stations. A total of eight feeding stations were evaluated at a ten meter distance in front of the respective bee hives. The feeding stations were placed two meters apart from one another.
Honeybees were trained to deep feeders (eight positions), each containing a 50% sucrose solution for one day. After the honeybees were trained to each feeder, the 50% sucrose feeder at randomized positions 1-8 was replaced with a shallow feeder containing a combination of repelling compounds and a 50% sucrose solution according to Table 9. In accordance with FIGS. 5 and 6, 2% by weight of Camphor oil (T4), Ajowan oil (T5), Camphor powder (T6), Rosemary oil (T7), and 2-Decanone (T8) in combination with a 50% sucrose treatment were added to feeders on day two.
Table 9 describes active agents evaluated for bee repulsion and their randomized feeding station positions. As described in […], T1 (control), T2 (control), T3 (control), T4 (Camphor oil), T5 (Ajowan oil), T6 (Camphor powder), T7 (Rosemary oil), and T8 (2-Decanone).
FIG. 5 evaluates the number of bees visiting a respective feed station over a time interval. FIG. 6 sets forth the mean number of honeybees visiting feeding station over a period of four hours.

[1] = Stability test of Poncho 600 with Eugenol, clothianidin content by HPLC; assay type: physicochemical; settings: in Poncho combined with Eugenol; up to 54° C. for seven days
Experimental: Table 10 describes a stability test with a combination of Eugenol and Poncho evaluated at room temperature, 40° C., and 54° C. at zero time, 3 days, and 7 days as confirmed by high performance liquid chromatography (HPLC).

[2] = Stability test of Poncho 600 with α-terpineol, clothianidin content by HPLC; assay type: physicochemical; settings: in Poncho combined with α-terpineol; up to 54° C. for eight days
Experimental: Table 11 describes a stability test with a combination of α-terpineol and Poncho 600 evaluated at room temperature, 40° C., and 54° C. at zero time, 2 days, and 8 days as confirmed by HPLC.

SMILES	Repellency to honeybees at 24 hours (honeybees)	Repellency to honeybees at 24 hours (honeybees; listed as 2-decanone)	Repellency to honeybees over the 4 hour assessment period (honeybees; full 4 hour assessment period)	Chemical stability of clothianidin content [1]	Chemical stability of clothianidin content [2]
CCCCCCCCC(C)=O [Compound 2-Decanone, 2-decanone (methyl-n-octyl ketone)]	exhibited repellency	still repellent	highly repellent		
CN/C(=N\[N+](=O)[O-])NCc1cnc(Cl)s1 [clothianidin]				exhibited chemical stability	exhibited chemical stability

Reference: patent publication US20140274682A1, “COMPOSITIONS AND METHODS FOR REDUCING DUST AND REPELLING, CONTROLLING, OR DIRECTING AN INSECT” (priority 2013, published 2014)
